Test results as given in patent US12419951B2, “Preparation of zinc risedronate micro/nano adjuvant and use thereof as vaccine adjuvant” (priority 2019, dated 2025).

System: hepatitis B therapeutic protein
Conditions: same risedronate content as Zn-risedronic acid (1/0.125) group
Procedure: Using the experimental procedure described in Example 4, mice were immunized with zinc risedronate adjuvant in combination with hepatitis B therapeutic protein by intramuscular injection, and serum antibody titers were detected. The specific method was as follows:
Experimental animals: Balb/C mice, 6-8 weeks, 5 mice/group, female.
Immunization protocol: antigen 1.2 μg/mouse, adjuvant and hepatitis B therapeutic protein were mixed at a volume ratio of 1:1 to form a vaccine, and then injected intramuscularly to mice, 150 μL per mouse, and 75 μL on each hind leg. The immunization was performed on the 0th, 2nd, 3rd, 4th, 5th and 6th week, 1.2 μg of antigen per mouse, blood samples were collected from eye socket after the 6th week, and ELISA was used to determine the levels of specific antibodies in serum.

## O=P(O)(O)C(O)(Cc1cccnc1)P(=O)(O)O [sodium risedronate, Risedronate sodium]
  difference in humoral immune response compared with aluminum adjuvant: no statistically significant difference
  humoral immune stimulation effect: a certain humoral immune stimulation effect
